Results from patent EP0184738A2, “Imidazole derivatives, medicaments containing these compounds, and process for their preparation” (Dr. Karl Thomae GmbH, priority 1984, dated 1986).

Tested on: despinalisierten Meerschweinchen
Test: Determination of the positive inotropic effect in despinalised guinea pigs
Assay type: in vivo
Conditions: 1 mg/kg i.v. (Vena jugularis), mean of 3 despinalised guinea pigs, left ventricular pressure
Source text: Bestimmung der positiv inotropen Wirkung an despinalisierten Meerschweinchen
Die Untersuchungen wurden an despinalisierten Meerschweinchen durchgeführt. Die Tiere wurden mit 50 % 02 + 50 % N2 beatmet. Der arterielle Blutdruck wurde in der rechten Arteria Carotis mit einem Bell and Howell Druckwandler (4-327-I) gemessen. Für die Erfassung der positiv inotropen Wirkung wurde mit einem Kathetertipmanometer (Millar PR-249) der Druck in dem linken Ventrikel (LV) gemessen. Mittels eines Differenzierers wurde LV-dp/dtmax gewonnen. Die zu untersuchenden Substanzen wurden in eine Vena jugularis injiziert. Als Lösungsdmittel diente 0,9 % NaCl+Polydiol 200 (1:1).
Jede Substanz wurde an 3 Meerschweinchen überprüft. Die Dosen waren 0,1 - 3 mg/kg i.v.. Die nachfolgende Tabelle enthält die Mittelwerte bei 1 mg/kg i.v..
Die neuen Verbindungen sind gut verträglich, so konnte bei der Untersuchung der Substanzen A bis D bis zu einer Dosis von 3 mg/kg i.v. keinerlei herztoxische Wirkungen bzw. Kreislaufschäden beobachtet werden.

Row | Compound | Zunahme in LV-dp/dtmax
1 | O=c1[nH][nH]cc2nc(-c3ccc4ccccc4c3)nc1-2 [Substanz A, 2-(Naphth-2-yl)-5H-imidazo[4,5-d]pyridazin-4-on] | 28%
2 | O=c1ccc2[nH]c(-c3cc4ccccc4cc3Cl)nc2[nH]1 [Substanz B, 2-(3-Chlor-naphth-2-yl)-lH-imidazo[4,5-b]pyridin-5-on] | 30%
3 | CCCOc1cc2ccccc2cc1-c1nc2cnc(Cl)nc2[nH]1 [Substanz D, 2-Chlor-8-(3-n-propoxy-naphth-2-yl)-purin] | 27%
4 | COc1ncc2[nH]c(-c3ccc4ccccc4c3)nc2n1 [Substanz C, 2-Methoxy-8-(naphth-2-yl)-purin] | 33%
